Series [1] has as its system female hairless mice (SKH, HR-1). The experiment in a line: Inhibition of photoaging in hairless mouse, oral administration, replica / SkinVisiometer. It is filed as in vivo. The conditions noted are these: 500 mg theanine per kg oral, 5 weeks, UV total 600 mJ/cm^2, versus Comparative Example 3, FIG. 7. The source says: In order to examine the effect of orally administered theanine on photoaging, hairless mice were used as animal models for this experiment. As described in Table 2, 6 to 7 week old female hairless mice (SKH, HR-1) were divided into 3 groups of Comparative Example 2 (normal group), Comparative Example 3 (UV control group) and Example 2 (UV/theanine treatment group), each group having 8 mice and were raised for the experiment period.
The mice of Comparative Example 2 and Comparative Example 3 were orally administered with 0.5 ml of saline and the mice of Example 2 were administered with 500 mg of theanine, based on the solid faction, per kg of body weight dissolved in 0.5 ml of saline using a syringe for liquid injection. The administration was continued for total 5 weeks and performed at the predetermined time for 5 days per week. From 2 weeks through 5 weeks after the administration had started, the groups of Comparative Example 3 and Example 2 were irradiated by UV under conditions similar to solar light three times per week. Here, the total UV irradiation for the experiment period was set to 600 mJ/cm^2. In order to objectively judge the effect of improving wrinkle, a replica was taken from the back of each hairless mouse prior to an autopsy. The skin surface was imaged using SkinVisiometer to compare and rates the degree of the skin wrinkles.

The subject of series [2] is Human fibroblasts. Description: Total collagen biosynthesis in dermal cells (L-[3H]-proline incorporation). It is filed as cell-based. Conditions: 1 mM theanine, 24 hours, relative to 100 of control group, FIG. 4. Here is the method: 5×10^4 of human fibroblasts were cultured in 24 well plates. The medium was replaced with a medium containing 164 kBq/ml L-[^3H]-proline and supplemented with theanine in a concentration either 0.01, 0.1, 1 or 10 mM. After incubation of 24 hours, the cells were harvested, disrupted and treated with collagenase to separate collagen. Then, the amount of ^3H increased by the treatment with theanine was determined using a liquid scintillation counter and compared to that of the control group which had not been treated with theanine. Without regard to the collagen type, the total collagen amount was measured and the data described in FIG. 4 are calculated relative to 100 of the control group. As a result, it was confirmed that the total collagen biosynthesis was increased by about 45% when treated with 1 mM of theanine.

The test system of a further series is type 1 collagen. Description: Immunohistochemistry of type 1 collagen in skin tissue. It is filed as in vivo, mice. The conditions noted are these: 500 mg theanine per kg oral, 5 weeks, UV, versus Comparative Example 3, FIG. 8. The protocol:
This example was performed using the hairless mice of Example 2 and Comparative Example 2 to 3, which had been used in Experiment Example 6 and histopathological observation was performed by immunohistochemistry. The skin on the back of the hairless mice was taken, fixed in 10% neutral formalin and subjected to immunohistochemistry using monoclonal IgG1 antibody to examine the expression of type 1 collagen in the skin tissue.

Series [3] deals with SKH-1 female hairless mice. Description: Collagen biosynthesis in hairless mice, closed patch test, western blotting. It is filed as in vivo. The conditions noted are these: cream of Example 1 (theanine 1) on back skin, closed patch test 2 weeks, versus Comparative Example 1, FIG. 5. The source says:
In order to examine the effect of improving skin wrinkle of theanine, SKH-1 female hairless mice, about 7 weeks old, were subjected to a closed patch test for 2 weeks. Each cream of Example 1 and Comparative Example 1 was applied on the back skin of the hairless mouse and after the closed patch test, the skin was biopsed. Proteins were separated from the biopsed skin and assessed for collagen by western blotting.

The test system of series [4] is Human fibroblasts. The experiment in a line: Cell viability (MTT). It is filed as cell-based. The conditions noted are these: 1, 10, 100, 1000 and 10000 μM theanine, 24 hours, FIG. 2. The protocol:
2×10^3 of human fibroblasts were cultured in a 96 well plate, treated with 1, 10, 100, 1000 and 10000 μM of theanine and incubated for 24 hours. 3-(4,5-dimethylazol-2-yl)-2,5-diphenyl-2H-tetraazoliumbromide (MTT) was added to the concentration of 0.5 mg/ml and further incubated for 4 hours.

In another series the test system is prolidase. Description: Prolidase activity in dermal cells (Chinard reaction, Gly-Pro substrate). It is filed as cell-based, human. The conditions noted are these: 0.01, 0.1, 1, 2 or 10 mM theanine, 24 hours, versus untreated control, FIG. 3. The protocol:
10^5 of human fibroblasts were cultured in 6 well plates for 6 days. The medium was replaced with heat-inactivated fetal bovine serum and then incubated for an additional 24 hours. The medium was again replaced with a culture medium containing either 0.01, 0.1, 1, 2 or 10 mM of theanine. After 24 hours, the cells were harvested and subjected to the Chinard reaction. The cells were ultrasonically disrupted and centrifuged at 100,000×g for 15 minutes. The supernatant was collected and mixed with 2 mM MnCl2 in the same amount for the prolidase reaction. The mixture was pre-reacted at 37° C. for 24 hours. 94 mM glycine-proline (Gly-Pro) dipeptide as a substrate of the prolidase reaction was added thereto in the same amount of the pre-reacted mixture and reacted at 37° C. for 1 hours. Then, the reaction was ended by adding 0.45M TCA. The enzymatic activity of prolidase was determined by quantifying proline, which is isolated by prolidase, by the color development using ninhydrin reagent. The enzyme activity was shown as a value calculating the equation of amount of isolated proline over protein weight over time (Mol/min/mg) and the result is shown in FIG. 3.

Series [5] deals with Human fibroblasts. Description: Procollagen biosynthesis in dermal cells (ELISA). It is filed as cell-based. Conditions: 48 hours, FIG. 1. Here is the method:
Human fibroblasts are cultured in the concentration of 10^4 in 48 well plates. The medium of the plates was replaced with a culture medium containing either 10 μM of vitamin C or 10 μM of transforming growth factor-β (TGF-β) and a culture medium containing either 0.1, 1, 10 or 100 μM of theanine. After culturing for 48 hours, the supernatants were harvested and synthesized procollagen was quantified using the ELISA (Takara MK101) method. The data were calculated relative to 100 of control group without containing the above substances and the result was shown in FIG. 1.

The subject of series [6] is female hairless mice (SKH, HR-1). The experiment in a line: H&E staining, thickness of the epidermal layer. It is filed as in vivo. Conditions: for Thickness of epidermal layer: 500 mg theanine per kg oral, 5 weeks, UV. The protocol:
In addition, the H&E (heamatoxylin & eosin) staining assay was performed for observation of general tissue condition and measurement of thickness of the epidermal layer. The thickness of the epidermal layer was measured at 10 different spots randomly selected per tissue by observing the H&E stained slide under the microscope with 100× magnification and the average value was shown in Table 3.

As for `CCNC(=O)CC[C@H](N)C(=O)O` [theanine], the “density and depth of the wrinkles on the skin surface” value in series [1] is “alleviated as compared to those of Comparative Example 3”. In addition, the “increase of total collagen biosynthesis” value in the series with Human fibroblasts [2] is “about 45%”. The “type 1 collagen staining in skin tissue” value in the series on type 1 collagen was “more collagen was stained in the epidermal and dermal junction”. In addition, the “collagen biosynthesis in skin (western blotting)” value in series [3] is recorded as “increased the collagen biosynthesis in the hairless mice”. Moreover, the “cell viability / toxicity (MTT)” value with Human fibroblasts [4] is listed as “not toxic at all”. Also, the “prolidase activity (amount of isolated proline)” value in the series on prolidase is recorded as “concentration-dependently increased”. The procollagen production entry with Human fibroblasts [5] (0.1, 1, 10 or 100 μM theanine, relative to 100 of control group) is “increased collagen production of fibroblast concentration-dependently”. In addition, in the series with Human fibroblasts [5] (versus 10 μM vitamin C or 10 μM TGF-β), the “procollagen production compared with positive controls” value is given as “higher procollagen production than the positive control groups”. In addition, the “Thickness of epidermal layer” value stood at 77.4% in series [6] and 7.56 ± 0.75 µm in series [6] (average of 10 spots per tissue, the values are: epidermal thickness). In series [6] (compared to the UV control group (Comparative Example 3)), the “decrease in the thickness of the epidermal layer” value is given as “about 23%”.

The values are drawn from patent US20100317736A1, “COMPOSITION OF THE SKIN EXTERNAL APPLICATION OR THE FOOD FOR ACCELERATING PROLINE RECYCLING BY CONTAINING THEANINE” (priority 2007, published 2010).
